Measured values taken from patent US20230073777A1, “CYCLIC-AMP RESPONSE ELEMENT BINDING PROTEIN (CBP) AND/OR ADENOVIRAL E1A BINDING PROTEIN OF 300 KDA (P300) DEGRADATION COMPOUNDS AND METHODS OF USE” (CULLGEN (SHANGHAI), INC., priority 2019, published 2023).
Where two headings read alike, the source gives them in different places.

How the values were obtained:
[1] = system: LNCaP cells; assay: LNCaP cell viability assay (CellTiter-Glo); type: cell-based; conditions: Homo sapiens, 72 h, LNCaP prostate cancer cell viability inhibition, 3 days
How it was run: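 LNCaP cells, 5000/well, exposed to compounds in 12-point 3-fold serial dilution (top 10 μM) for 3 days. Viability by CellTiter-Glo luminescence, normalized to untreated cells; IC50 by least-squares nonlinear regression.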

[2] = target: P300 (Homo sapiens, UniProt Q09472); assay: Immunoblotting of P300 protein levels in LNCaP or 22RV1 cells; type: cell-based; parameters: LNCaP or 22RV1 cells that express CBP/P300 proteins were treated with GNE-781 or the bivalent compounds; endogenous in cells; host or cells: LNCaP (clone FGC) or 22RV1 cells; conditions: read-out: Degradation (10 nM)
P300, sequence (Q09472 whole entry): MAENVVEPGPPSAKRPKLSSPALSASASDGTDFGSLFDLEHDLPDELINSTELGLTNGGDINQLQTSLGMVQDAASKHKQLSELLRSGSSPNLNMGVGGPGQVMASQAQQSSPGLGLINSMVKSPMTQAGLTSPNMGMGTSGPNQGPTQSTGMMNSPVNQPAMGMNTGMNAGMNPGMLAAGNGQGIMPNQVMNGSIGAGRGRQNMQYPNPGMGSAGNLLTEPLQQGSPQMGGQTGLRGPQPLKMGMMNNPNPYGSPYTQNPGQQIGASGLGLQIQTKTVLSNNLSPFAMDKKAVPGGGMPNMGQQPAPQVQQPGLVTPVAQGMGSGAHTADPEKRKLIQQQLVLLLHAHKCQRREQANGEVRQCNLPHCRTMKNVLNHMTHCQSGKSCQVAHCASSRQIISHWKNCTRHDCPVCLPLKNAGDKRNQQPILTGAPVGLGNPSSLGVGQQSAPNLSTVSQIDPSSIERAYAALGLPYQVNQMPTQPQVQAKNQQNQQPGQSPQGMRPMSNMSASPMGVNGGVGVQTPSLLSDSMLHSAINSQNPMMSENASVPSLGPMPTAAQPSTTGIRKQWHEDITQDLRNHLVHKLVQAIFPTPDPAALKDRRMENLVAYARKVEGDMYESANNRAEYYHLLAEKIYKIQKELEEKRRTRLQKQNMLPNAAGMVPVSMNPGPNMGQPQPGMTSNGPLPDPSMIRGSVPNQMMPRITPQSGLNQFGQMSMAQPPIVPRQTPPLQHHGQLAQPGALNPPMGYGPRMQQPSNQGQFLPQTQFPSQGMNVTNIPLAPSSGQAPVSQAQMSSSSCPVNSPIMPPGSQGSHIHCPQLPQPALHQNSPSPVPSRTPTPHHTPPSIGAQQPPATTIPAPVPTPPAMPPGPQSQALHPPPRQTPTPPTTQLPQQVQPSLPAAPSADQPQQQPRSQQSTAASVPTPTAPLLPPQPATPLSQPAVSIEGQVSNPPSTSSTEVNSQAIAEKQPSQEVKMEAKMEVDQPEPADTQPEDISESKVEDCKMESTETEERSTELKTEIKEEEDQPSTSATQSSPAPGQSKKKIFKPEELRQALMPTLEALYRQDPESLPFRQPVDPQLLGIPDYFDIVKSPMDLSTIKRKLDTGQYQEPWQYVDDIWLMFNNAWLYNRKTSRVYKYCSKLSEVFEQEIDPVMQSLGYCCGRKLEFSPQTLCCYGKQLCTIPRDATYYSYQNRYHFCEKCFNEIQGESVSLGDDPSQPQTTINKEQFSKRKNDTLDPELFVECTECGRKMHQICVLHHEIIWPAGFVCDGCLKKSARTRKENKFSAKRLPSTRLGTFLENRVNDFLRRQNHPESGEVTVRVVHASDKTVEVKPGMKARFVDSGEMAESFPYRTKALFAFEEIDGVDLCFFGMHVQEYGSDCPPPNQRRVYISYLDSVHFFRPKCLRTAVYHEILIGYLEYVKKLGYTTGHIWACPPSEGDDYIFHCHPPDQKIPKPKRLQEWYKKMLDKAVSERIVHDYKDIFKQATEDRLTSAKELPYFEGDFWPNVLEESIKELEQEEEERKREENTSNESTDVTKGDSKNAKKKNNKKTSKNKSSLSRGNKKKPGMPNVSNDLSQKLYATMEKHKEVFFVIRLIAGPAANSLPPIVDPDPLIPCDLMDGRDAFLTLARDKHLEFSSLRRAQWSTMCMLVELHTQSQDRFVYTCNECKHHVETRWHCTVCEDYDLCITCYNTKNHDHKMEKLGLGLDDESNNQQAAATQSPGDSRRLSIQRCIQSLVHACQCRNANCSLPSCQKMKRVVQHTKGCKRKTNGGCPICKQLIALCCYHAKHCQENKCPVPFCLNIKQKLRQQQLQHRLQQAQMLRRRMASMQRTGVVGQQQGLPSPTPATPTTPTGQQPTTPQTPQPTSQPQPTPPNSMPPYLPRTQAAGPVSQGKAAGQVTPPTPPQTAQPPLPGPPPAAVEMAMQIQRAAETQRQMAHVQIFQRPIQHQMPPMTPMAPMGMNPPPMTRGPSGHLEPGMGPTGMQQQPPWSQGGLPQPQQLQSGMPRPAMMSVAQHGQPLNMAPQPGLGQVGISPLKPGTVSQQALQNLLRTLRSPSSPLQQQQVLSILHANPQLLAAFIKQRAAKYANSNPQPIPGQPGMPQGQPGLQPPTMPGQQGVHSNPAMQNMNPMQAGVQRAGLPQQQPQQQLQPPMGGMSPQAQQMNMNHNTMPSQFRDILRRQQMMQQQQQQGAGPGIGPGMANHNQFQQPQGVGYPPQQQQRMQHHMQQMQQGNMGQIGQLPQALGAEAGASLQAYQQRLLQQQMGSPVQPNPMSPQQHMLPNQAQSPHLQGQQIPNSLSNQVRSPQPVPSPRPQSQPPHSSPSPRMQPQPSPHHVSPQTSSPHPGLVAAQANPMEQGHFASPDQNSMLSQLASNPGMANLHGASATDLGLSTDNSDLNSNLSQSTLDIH
Description: Specific exemplary bivalent compounds were characterized in LNCaP or 22RV1 cells. LNCaP or 22RV1 cells that express CBP/P300 proteins were treated with GNE-781 or the bivalent compounds disclosed herein (P-001 to P-174) for indicated hours. Cells were collected, lysed and subject to immunoblotting using an antibody specific to P300 or CBP proteins. Tubulin or vinculin was included as the loading control. DMSO was used as the negative control.
Cultured cells or tissue chunks were washed with cold PBS once and lysed in cold RIPA buffer supplemented with protease inhibitors and phosphatase inhibitors (Beyotime Biotechnology). The solutions were then incubated at 4° C. for 30 minutes with gentle agitation to fully lyse cells. Cell lysates were centrifuged at 13,000 rpm for 10 minutes at 4° C. and pellets were discarded. Total protein concentrations in the lysates were determined by BCA assays (Beyotime Biotechnology). Cell lysates were mixed with Laemmli loading buffer to 1× and heated at 99° C. for 5 min. Proteins were resolved on SDS-PAGE and visualized by chemiluminescence. Images were taken by a ChemiDoc MP Imaging system (Bio-Rad). Protein bands were quantitated using the accompanied software provided by Bio-Rad.

[3] = percentage of inhibition of p300 at 10 nM (Table 3)
[4] = percentage of inhibition of p300 at 10 nM (Table 2)

CC(=O)N1CCc2c(c(N3CCCc4cc(-c5cnn(C)c5)c(C(F)F)cc43)nn2C2CCN(C(=O)CCCCCCCNc3cccc4c3n(C)c(=O)n4C3CCC(=O)NC3=O)CC2)C1 (stereo not drawn) [P-159, 3-(4-((8-(4-(5-acetyl-3-(7-(difluoromethyl)-6-(1-methyl-1H-pyrazol-4-yl)-3,4-dihydroquinolin-1(2H)-yl)-4,5,6,7-tetrahydro-1H-pyrazolo[4,3-c]pyridin-1-yl)piperidin-1-yl)-8-oxooctyl)amino)-3-methyl-2-oxo-2,3-dihydro-1H-benzo[d]imidazol-1-yl)piperidine-2,6-dione] showed an IC50 ([1]; CellTiter-Glo (Table 3)) of 0.2 nM and an inhibition at 0.01 µM [2, 3] greater than 80%.
Compound CNC(=O)N1CCc2c(c(N3CCCc4cc(-c5cnn(C)c5)c(C(F)F)cc43)nn2C2CCN(C(=O)CCOCCOCCOCCOCCOCCC(=O)N[C@H](C(=O)N3C[C@H](O)C[C@H]3C(=O)NCc3ccc(-c4scnc4C)cc3)C(C)(C)C)CC2)C1 [P-072, 3-(7-(Difluoromethyl)-6-(1-methyl-1H-pyrazol-4-yl)-3,4-dihydroquinolin-1(2H)-yl)-1-(1-((S)-21-((2S,4R)-4-hydroxy-2-((4-(4-methylthiazol-5-yl)benzyl)carbamoyl)pyrrolidine-1-carbonyl)-22,22-dimethyl-19-oxo-4,7,10,13,16-pentaoxa-20-azatricosanoyl)piperidin-4-yl)-N-methyl-1,4,6,7-tetrahydro-5H-pyrazolo[4,3-c]pyridine-5-carboxamide] has an IC50 ([1]; CellTiter-Glo (Table 3)) of 60.7 nM and an inhibition at 0.01 µM [2, 3] of less than 20%.
Compound CNC(=O)N1CCc2c(c(N3CCCc4cc(-c5cnn(C)c5)c(C(F)F)cc43)nn2C2CCN(C(=O)CCCCCOc3cccc4c3C(=O)N(C3CCC(=O)NC3=O)C4)CC2)C1 (stereo not drawn) [P-089, 3-(7-(Difluoromethyl)-6-(1-methyl-1H-pyrazol-4-yl)-3,4-dihydroquinolin-1(2H)-yl)-1-(1-(6-((2-(2,6-dioxopiperidin-3-yl)-3-oxoisoindolin-4-yl)oxy)hexanoyl)piperidin-4-yl)-N-methyl-1,4,6,7-tetrahydro-5H-pyrazolo[4,3-c]pyridine-5-carboxamide] has an IC50 ([1]; CellTiter-Glo (Table 3)) of 78.5 nM and an inhibition at 0.01 µM [2, 3] of less than 20%.
With CC(=O)N1CCc2c(c(N3CCCc4cc(-c5cnn(C)c5)c(C(F)F)cc43)nn2C2CCN(CCN3CCC(CNc4cccc5c4C(=O)N(C4CCC(=O)NC4=O)C5=O)CC3)CC2)C1 (stereo not drawn) [P-143, 4-(((1-(2-(4-(5-acetyl-3-(7-(difluoromethyl)-6-(1-methyl-1H-pyrazol-4-yl)-3,4-dihydroquinolin-1(2H)-yl)-4,5,6,7-tetrahydro-1H-pyrazolo[4,3-c]pyridin-1-yl)piperidin-1-yl)ethyl)piperidin-4-yl)methyl)amino)-2-(2,6-dioxopiperidin-3-yl)isoindoline-1,3-dione] the IC50 ([1]; CellTiter-Glo (Table 3)) was 1.5 nM and the inhibition at 0.01 µM [2] was greater than 80%.
In the case of CC(=O)N1CCc2c(c(N3CCCc4cc(-c5cnn(C)c5)c(C(F)F)cc43)nn2C2CCN(C(=O)CC#CCCNc3cccc4c3C(=O)N(C3CCC(=O)NC3=O)C4=O)CC2)C1 (stereo not drawn) [P-171, 4-((6-(4-(5-Acetyl-3-(7-(difluoromethyl)-6-(1-methyl-1H-pyrazol-4-yl)-3,4-dihydroquinolin-1(2H)-yl)-4,5,6,7-tetrahydro-1H-pyrazolo[4,3-c]pyridin-1-yl)piperidin-1-yl)-6-oxohex-3-yn-1-yl)amino)-2-(2,6-dioxopiperidin-3-yl)isoindoline-1,3-dione], the IC50 ([1]; CellTiter-Glo (Table 3)) is reported as 253 nM and the inhibition at 0.01 µM [2, 3] is reported as 20 to 50%.
With CNC(=O)N1CCc2c(c(N3CCCc4cc(-c5cnn(CC(=O)NCCCCC(=O)N[C@H](C(=O)N6C[C@H](O)C[C@H]6C(=O)NCc6ccc(-c7scnc7C)cc6)C(C)(C)C)c5)c(C(F)F)cc43)nn2C2CCOCC2)C1 [P-046, 3-(7-(Difluoromethyl)-6-(1-(2-((5-(((S)-1-((2S,4R)-4-hydroxy-2-((4-(4-methylthiazol-5-yl)benzyl)carbamoyl)pyrrolidin-1-yl)-3,3-dimethyl-1-oxobutan-2-yl)amino)-5-oxopentyl)amino)-2-oxoethyl)-1H-pyrazol-4-yl)-3,4-dihydroquinolin-1(2H)-yl)-N-methyl-1-(tetrahydro-2H-pyran-4-yl)-1,4,6,7-tetrahydro-5H-pyrazolo[4,3-c]pyridine-5-carboxamide] the IC50 ([1]; CellTiter-Glo (Table 2)) was 9040 nM and the inhibition at 0.01 µM [2, 4] was less than 20%.
For CC(=O)N1CCc2c(c(N3CCCc4cc(-c5cnn(C)c5)c(C(F)F)cc43)nn2C2CCN(Cc3ccc(CCOc4cccc5c4CN(C4CCC(=O)NC4=O)C5=O)cc3)CC2)C1 (stereo not drawn) [P-174, 3-(4-(4-((4-(5-acetyl-3-(7-(difluoromethyl)-6-(1-methyl-1H-pyrazol-4-yl)-3,4-dihydroquinolin-1(2H)-yl)-4,5,6,7-tetrahydro-1H-pyrazolo[4,3-c]pyridin-1-yl)piperidin-1-yl)methyl)phenethoxy)-1-oxoisoindolin-2-yl)piperidine-2,6-dione], the IC50 ([1]; CellTiter-Glo (Table 3)) was 0.4 nM and the inhibition at 0.01 µM [2, 3] was greater than 80%.
CNC(=O)N1CCc2c(c(N3CCCc4cc(-c5cnn(CC(=O)NCCOCCOCCOCCOCCOCCNc6ccc7c(c6)C(=O)N(C6CCC(=O)NC6=O)C7=O)c5)c(C(F)F)cc43)nn2C2CCOCC2)C1 (stereo not drawn) [P-032, 3-(7-(Difluoromethyl)-6-(1-(20-((2-(2,6-dioxopiperidin-3-yl)-1,3-dioxoisoindolin-5-yl)amino)-2-oxo-6,9,12,15,18-pentaoxa-3-azaicosyl)-1H-pyrazol-4-yl)-3,4-dihydroquinolin-1(2H)-yl)-N-methyl-1-(tetrahydro-2H-pyran-4-yl)-1,4,6,7-tetrahydro-5H-pyrazolo[4,3-c]pyridine-5-carboxamide] gave an IC50 ([1]; CellTiter-Glo (Table 2)) of 601 nM and an inhibition at 0.01 µM [2, 4] of less than 20%.
CNC(=O)N1CCc2c(c(N3CCCc4cc(-c5cnn(C)c5)c(C(F)F)cc43)nn2C2CCN(C(=O)CCCCCCC(=O)N[C@H](C(=O)N3C[C@H](O)C[C@H]3C(=O)NCc3ccc(-c4scnc4C)cc3)C(C)(C)C)CC2)C1 [P-060, 3-(7-(Difluoromethyl)-6-(1-methyl-1H-pyrazol-4-yl)-3,4-dihydroquinolin-1(2H)-yl)-1-(1-(8-(((S)-1-((2S,4R)-4-hydroxy-2-((4-(4-methylthiazol-5-yl)benzyl)carbamoyl)pyrrolidin-1-yl)-3,3-dimethyl-1-oxobutan-2-yl)amino)-8-oxooctanoyl)piperidin-4-yl)-N-methyl-1,4,6,7-tetrahydro-5H-pyrazolo[4,3-c]pyridine-5-carboxamide] was tested, and the IC50 ([1]; CellTiter-Glo (Table 3)) was 59.1 nM and the inhibition at 0.01 µM [2, 3] was less than 20%.
CNC(=O)N1CCc2c(c(N3CCCc4cc(-c5cnn(CC(=O)NCCCCCCCCNc6cccc7c6C(=O)N(C6CCC(=O)NC6=O)C7=O)c5)c(C(F)F)cc43)nn2C2CCOCC2)C1 (stereo not drawn) [P-043, 3-(7-(difluoromethyl)-6-(1-(2-((8-((2-(2,6-dioxopiperidin-3-yl)-1,3-dioxoisoindolin-4-yl)amino)octyl)amino)-2-oxoethyl)-1H-pyrazol-4-yl)-3,4-dihydroquinolin-1(2H)-yl)-N-methyl-1-(tetrahydro-2H-pyran-4-yl)-1,4,6,7-tetrahydro-5H-pyrazolo[4,3-c]pyridine-5-carboxamide] gave an IC50 ([1]; CellTiter-Glo (Table 2)) of 15.4 nM and an inhibition at 0.01 µM [2, 4] of 20 to 50%.
In the case of CNC(=O)N1CCc2c(c(N3CCCc4cc(-c5cnn(CC(=O)NCCCCNc6cccc7c6C(=O)N(C6CCC(=O)NC6=O)C7=O)c5)c(C(F)F)cc43)nn2C2CCOCC2)C1 (stereo not drawn) [P-039, 3-(7-(Difluoromethyl)-6-(1-(2-((4-((2-(2,6-dioxopiperidin-3-yl)-1,3-dioxoisoindolin-4-yl)amino)butyl)amino)-2-oxoethyl)-1H-pyrazol-4-yl)-3,4-dihydroquinolin-1(2H)-yl)-N-methyl-1-(tetrahydro-2H-pyran-4-yl)-1,4,6,7-tetrahydro-5H-pyrazolo[4,3-c]pyridine-5-carboxamide], the IC50 ([1]; CellTiter-Glo (Table 2)) is reported as 397 nM and the inhibition at 0.01 µM [2, 4] is reported as less than 20%.
CNC(=O)N1CCc2c(c(N3CCCc4cc(-c5cnn(CC(=O)NCCC(=O)N[C@H](C(=O)N6C[C@H](O)C[C@H]6C(=O)NCc6ccc(-c7scnc7C)cc6)C(C)(C)C)c5)c(C(F)F)cc43)nn2C2CCOCC2)C1 [P-045, 3-(7-(Difluoromethyl)-6-(1-(2-((3-(((S)-1-((2S,4R)-4-hydroxy-2-((4-(4-methylthiazol-5-yl)benzyl)carbamoyl)pyrrolidin-1-yl)-3,3-dimethyl-1-oxobutan-2-yl)amino)-3-oxopropyl)amino)-2-oxoethyl)-1H-pyrazol-4-yl)-3,4-dihydroquinolin-1(2H)-yl)-N-methyl-1-(tetrahydro-2H-pyran-4-yl)-1,4,6,7-tetrahydro-5H-pyrazolo[4,3-c]pyridine-5-carboxamide] gave an IC50 ([1]; CellTiter-Glo (Table 2)) greater than 10000 nM and an inhibition at 0.01 µM [2, 4] of less than 20%.
